Results reported in ChEMBL document CHEMBL4507292 (2021).

Assays:
Rattus norvegicus [1] = species: Rattus norvegicus; assay: Testosterone Eurofins-Panlabs radioligand binding assay; set-up: ligand concentration 1.5 nM; details: Compound concentration 10.0 uM
Homo sapiens [2] = species: Homo sapiens; assay: (§1) Prostanoid, Thromboxane A2 (TP) Eurofins-Panlabs radioligand binding assay; set-up: ligand concentration 5 nM, non-specific ligand with concentration 1 µM SQ-29548, incubation time 30 min, incubation temperature 25 °C
[3] = as §1; set-up: species or system Homo sapiens; ligand concentration 5 nM, non-specific ligand with concentration 1 µM SQ-29548, incubation time 30 min, incubation temperature 25 °C
[4] = target: Prostaglandin E2 receptor EP1 subtype (Homo sapiens) (UniProt P34995); assay: Prostanoid EP1 Eurofins-Panlabs radioligand binding assay; details: Compound concentration 10.0 uM
Insulin receptor = Insulin receptor (Homo sapiens, UniProt P06213); details: Rattus norvegicus; Compound concentration 10.0 uM
Insulin receptor, sequence (P06213 28-758 limits assumed): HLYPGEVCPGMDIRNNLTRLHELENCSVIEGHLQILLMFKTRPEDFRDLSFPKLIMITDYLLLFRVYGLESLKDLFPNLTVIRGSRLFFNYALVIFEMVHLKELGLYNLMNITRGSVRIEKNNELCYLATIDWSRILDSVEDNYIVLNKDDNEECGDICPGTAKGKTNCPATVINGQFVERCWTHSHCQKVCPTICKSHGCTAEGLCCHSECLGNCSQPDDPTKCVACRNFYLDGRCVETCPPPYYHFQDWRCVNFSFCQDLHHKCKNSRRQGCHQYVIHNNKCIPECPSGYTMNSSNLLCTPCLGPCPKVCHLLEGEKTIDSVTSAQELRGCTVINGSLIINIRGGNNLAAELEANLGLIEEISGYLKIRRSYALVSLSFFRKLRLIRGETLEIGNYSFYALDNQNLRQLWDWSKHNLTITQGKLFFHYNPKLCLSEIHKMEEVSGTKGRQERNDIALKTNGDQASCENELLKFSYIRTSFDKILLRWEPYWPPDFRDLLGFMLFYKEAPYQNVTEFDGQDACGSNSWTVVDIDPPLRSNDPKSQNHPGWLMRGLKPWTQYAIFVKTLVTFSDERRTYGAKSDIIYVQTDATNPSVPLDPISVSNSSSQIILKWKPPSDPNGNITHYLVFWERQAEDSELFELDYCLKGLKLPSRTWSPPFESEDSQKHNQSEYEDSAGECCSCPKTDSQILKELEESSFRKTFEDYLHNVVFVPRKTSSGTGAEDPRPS
Insulin receptor, sequence (P06213 763-1382 limits assumed): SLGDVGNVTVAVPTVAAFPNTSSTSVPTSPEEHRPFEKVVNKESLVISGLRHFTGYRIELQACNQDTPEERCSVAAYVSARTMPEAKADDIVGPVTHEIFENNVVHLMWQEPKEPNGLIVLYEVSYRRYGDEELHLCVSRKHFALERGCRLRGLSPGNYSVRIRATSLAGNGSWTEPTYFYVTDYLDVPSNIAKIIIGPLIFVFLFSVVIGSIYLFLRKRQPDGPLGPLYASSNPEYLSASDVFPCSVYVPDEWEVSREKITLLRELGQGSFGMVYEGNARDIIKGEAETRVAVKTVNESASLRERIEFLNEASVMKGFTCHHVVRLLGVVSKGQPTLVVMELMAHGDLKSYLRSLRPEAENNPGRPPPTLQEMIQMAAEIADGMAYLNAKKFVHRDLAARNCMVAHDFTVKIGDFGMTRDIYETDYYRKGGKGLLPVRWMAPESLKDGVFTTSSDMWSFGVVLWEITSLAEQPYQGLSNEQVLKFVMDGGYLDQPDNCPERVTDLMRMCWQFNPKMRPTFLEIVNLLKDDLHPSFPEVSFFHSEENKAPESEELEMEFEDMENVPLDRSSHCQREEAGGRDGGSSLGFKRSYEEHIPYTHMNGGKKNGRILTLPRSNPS

[5] = target: Melanocortin receptor 5 (Homo sapiens) (UniProt P33032); assay: Inhibition of Melanocortin MC5 at 10 µM in the Eurofins-Panlabs radioligand binding assay (Eurofins_assay_251400); set-up: ligand concentration 0.035 nM; details: Compound concentration 10.0 uM
Melanocortin receptor 5 (Homo sapiens), sequence (P33032 whole entry): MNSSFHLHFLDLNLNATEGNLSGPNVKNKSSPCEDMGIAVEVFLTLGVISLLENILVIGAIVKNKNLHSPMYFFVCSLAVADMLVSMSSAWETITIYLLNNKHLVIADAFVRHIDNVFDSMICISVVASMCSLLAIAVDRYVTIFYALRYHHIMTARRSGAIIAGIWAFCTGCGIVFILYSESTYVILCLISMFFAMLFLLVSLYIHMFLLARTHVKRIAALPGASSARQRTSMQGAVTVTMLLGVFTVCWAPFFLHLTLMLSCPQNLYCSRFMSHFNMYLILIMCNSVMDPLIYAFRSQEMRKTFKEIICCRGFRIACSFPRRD

[6] = target: T1, Cysteinyl leukotriene receptor 1 (Homo sapiens) (UniProt Q9Y271); assay: (§2) Inhibition of Leukotriene, Cysteinyl CysLT1 at 10 µM in the Eurofins-Panlabs radioligand binding assay (Eurofins_assay_250460); set-up: ligand concentration 0.3 nM, non-specific ligand with concentration 0.3 µM Leukotriene D4, incubation time 30 min, incubation temperature 25 °C
T1 sequence (whole entry): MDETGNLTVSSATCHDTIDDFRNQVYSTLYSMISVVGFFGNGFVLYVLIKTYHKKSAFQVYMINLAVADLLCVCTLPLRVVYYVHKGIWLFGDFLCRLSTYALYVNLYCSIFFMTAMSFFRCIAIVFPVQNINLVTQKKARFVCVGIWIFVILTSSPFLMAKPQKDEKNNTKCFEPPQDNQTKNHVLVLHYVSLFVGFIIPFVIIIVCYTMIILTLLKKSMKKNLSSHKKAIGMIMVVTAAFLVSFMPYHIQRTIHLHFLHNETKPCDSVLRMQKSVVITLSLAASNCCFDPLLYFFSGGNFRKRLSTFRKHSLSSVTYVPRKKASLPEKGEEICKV

[7] = target: Cysteinyl leukotriene receptor 1 (Homo sapiens, UniProt Q9Y271); assay: as §2; set-up: ligand concentration 0.3 nM, non-specific ligand with concentration 0.3 µM Leukotriene D4, incubation time 30 min, incubation temperature 25 °C
[8] = target: cGMP-dependent 3',5'-cyclic phosphodiesterase (Homo sapiens, UniProt O00408); assay: Phosphodiesterase PDE2 Eurofins-Panlabs enzyme assay; set-up: substrate with concentration [3H] cAMP + cAMP, incubation time 20 min, incubation temperature 25 °C
cGMP-dependent 3',5'-cyclic phosphodiesterase, sequence (O00408 whole entry): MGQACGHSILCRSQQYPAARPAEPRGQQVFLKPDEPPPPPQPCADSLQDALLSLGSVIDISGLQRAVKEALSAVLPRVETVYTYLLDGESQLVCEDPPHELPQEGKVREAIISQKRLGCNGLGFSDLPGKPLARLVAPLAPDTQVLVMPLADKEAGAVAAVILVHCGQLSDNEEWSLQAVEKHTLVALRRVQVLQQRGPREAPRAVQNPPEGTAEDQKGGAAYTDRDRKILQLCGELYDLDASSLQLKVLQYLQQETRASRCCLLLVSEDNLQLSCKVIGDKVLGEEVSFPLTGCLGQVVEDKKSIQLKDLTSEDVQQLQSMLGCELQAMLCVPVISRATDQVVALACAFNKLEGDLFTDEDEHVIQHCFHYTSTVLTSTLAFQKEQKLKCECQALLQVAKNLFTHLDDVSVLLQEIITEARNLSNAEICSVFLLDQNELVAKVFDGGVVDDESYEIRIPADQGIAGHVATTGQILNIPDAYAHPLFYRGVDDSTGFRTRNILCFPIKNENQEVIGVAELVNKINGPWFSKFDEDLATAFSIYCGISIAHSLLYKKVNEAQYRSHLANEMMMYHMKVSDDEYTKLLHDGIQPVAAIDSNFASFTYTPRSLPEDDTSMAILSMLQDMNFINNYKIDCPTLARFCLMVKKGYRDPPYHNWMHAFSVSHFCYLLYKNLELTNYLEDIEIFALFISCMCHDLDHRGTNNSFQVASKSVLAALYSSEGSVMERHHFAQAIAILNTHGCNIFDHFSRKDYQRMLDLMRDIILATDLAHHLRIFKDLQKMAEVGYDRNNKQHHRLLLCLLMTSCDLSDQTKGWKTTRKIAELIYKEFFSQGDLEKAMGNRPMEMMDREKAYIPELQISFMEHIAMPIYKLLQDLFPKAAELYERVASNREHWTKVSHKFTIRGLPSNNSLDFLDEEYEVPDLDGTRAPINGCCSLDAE

[9] = target: C-X-C chemokine receptor type 2 (Homo sapiens) (UniProt P25025); assay: Inhibition of Chemokine CXCR2 (IL-8RB) at 10 µM in the Eurofins-Panlabs radioligand binding assay (Eurofins_assay_244500)
[10] = target: C-C chemokine receptor type 5 (Homo sapiens) (UniProt P51681); assay: Chemokine CCR5 Eurofins-Panlabs radioligand binding assay; details: Compound concentration 10.0 uM
[11] = target: cGMP-specific 3',5'-cyclic phosphodiesterase (Homo sapiens, UniProt O76074)
[12] = target: Platelet-activating factor receptor (Homo sapiens) (UniProt P25105); assay: Inhibition of Platelet Activating Factor (PAF) at 10 µM in the Eurofins-Panlabs radioligand binding assay (Eurofins_assay_265010); details: Compound concentration 10.0 uM
Platelet-activating factor receptor (Homo sapiens), sequence (P25105 whole entry): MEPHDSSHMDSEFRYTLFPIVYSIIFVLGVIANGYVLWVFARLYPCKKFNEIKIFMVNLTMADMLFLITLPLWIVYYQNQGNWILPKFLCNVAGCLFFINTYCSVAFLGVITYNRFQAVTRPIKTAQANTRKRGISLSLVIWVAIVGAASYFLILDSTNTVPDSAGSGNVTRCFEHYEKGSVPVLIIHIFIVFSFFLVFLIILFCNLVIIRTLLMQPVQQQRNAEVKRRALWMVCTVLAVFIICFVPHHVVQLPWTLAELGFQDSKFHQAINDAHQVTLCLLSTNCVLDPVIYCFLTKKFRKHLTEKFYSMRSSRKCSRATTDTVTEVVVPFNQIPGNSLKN

Rattus norvegicus [13] = species: Rattus norvegicus; assay: Protein Serine/Threonine Kinase, PKC, Non-Selective Eurofins-Panlabs enzyme assay; details: Compound concentration 10.0 uM
[14] = target: Prostaglandin F2-alpha receptor (Homo sapiens) (UniProt P43088); assay: Prostanoid FP Eurofins-Panlabs radioligand binding assay; set-up: ligand concentration 0.95 nM; details: Compound concentration 10.0 uM
Prostaglandin F2-alpha receptor (Homo sapiens), sequence (P43088 whole entry): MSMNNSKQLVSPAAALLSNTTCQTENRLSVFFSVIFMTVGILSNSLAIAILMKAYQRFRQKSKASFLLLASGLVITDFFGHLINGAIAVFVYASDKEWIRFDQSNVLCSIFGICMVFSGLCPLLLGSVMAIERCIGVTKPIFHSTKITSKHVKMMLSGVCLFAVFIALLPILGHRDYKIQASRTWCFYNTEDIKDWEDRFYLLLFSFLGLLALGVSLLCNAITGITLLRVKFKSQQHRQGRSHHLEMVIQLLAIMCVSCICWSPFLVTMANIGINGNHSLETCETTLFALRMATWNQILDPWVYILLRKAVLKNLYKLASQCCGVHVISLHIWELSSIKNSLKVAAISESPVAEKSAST

[15] = target: ATP-sensitive inward rectifier potassium channel 11 (Cricetulus griseus) (UniProt A0A3L7HHE1); assay: Inhibition of Potassium Channel [KATP] at 10 µM in the Eurofins-Panlabs radioligand binding assay (Eurofins_assay_265600); details: Cricetinae; Compound concentration 10.0 uM
ATP-sensitive inward rectifier potassium channel 11 (Cricetulus griseus), sequence (A0A3L7HHE1 as listed by the source): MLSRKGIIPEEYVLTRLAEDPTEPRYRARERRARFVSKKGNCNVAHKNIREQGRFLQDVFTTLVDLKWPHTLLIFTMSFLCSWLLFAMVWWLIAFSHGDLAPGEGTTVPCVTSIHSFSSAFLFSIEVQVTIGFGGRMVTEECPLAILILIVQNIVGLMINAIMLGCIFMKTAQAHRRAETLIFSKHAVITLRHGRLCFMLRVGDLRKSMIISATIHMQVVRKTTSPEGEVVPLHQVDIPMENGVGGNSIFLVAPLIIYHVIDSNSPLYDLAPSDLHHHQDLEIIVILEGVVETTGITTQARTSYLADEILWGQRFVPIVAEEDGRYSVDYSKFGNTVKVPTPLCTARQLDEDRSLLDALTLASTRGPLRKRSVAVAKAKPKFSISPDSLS

[16] = target: Glutamate receptor 2 (Homo sapiens) (UniProt P42262); details: Rattus norvegicus; Compound concentration 10.0 uM
Glutamate receptor 2 (Homo sapiens), sequence (P42262 whole entry): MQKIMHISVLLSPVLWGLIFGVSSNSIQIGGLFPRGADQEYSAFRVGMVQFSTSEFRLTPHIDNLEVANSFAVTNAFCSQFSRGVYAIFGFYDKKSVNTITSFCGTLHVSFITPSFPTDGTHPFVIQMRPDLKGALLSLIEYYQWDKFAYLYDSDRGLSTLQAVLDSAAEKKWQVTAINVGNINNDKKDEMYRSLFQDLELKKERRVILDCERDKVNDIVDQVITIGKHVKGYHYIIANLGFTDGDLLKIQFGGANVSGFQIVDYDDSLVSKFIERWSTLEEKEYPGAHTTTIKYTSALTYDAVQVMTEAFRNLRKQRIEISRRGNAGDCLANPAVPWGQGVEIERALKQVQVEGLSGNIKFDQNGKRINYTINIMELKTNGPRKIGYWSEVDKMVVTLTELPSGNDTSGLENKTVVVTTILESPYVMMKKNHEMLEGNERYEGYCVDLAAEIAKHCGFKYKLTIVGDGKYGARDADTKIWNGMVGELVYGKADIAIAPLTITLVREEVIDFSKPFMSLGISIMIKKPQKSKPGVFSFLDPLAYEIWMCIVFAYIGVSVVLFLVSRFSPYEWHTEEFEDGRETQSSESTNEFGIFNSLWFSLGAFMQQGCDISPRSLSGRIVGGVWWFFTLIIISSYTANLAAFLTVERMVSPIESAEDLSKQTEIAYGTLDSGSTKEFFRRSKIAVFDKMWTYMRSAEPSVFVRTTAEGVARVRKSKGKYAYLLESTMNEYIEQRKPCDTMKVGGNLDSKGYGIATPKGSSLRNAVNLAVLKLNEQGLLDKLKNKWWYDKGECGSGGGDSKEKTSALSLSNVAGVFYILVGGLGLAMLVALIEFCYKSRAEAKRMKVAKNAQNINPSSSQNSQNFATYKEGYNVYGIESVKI

[17] = target: monoamine oxidase B (MAO-B) (Homo sapiens, UniProt P27338); assay: Inhibition of Monoamine Oxidase MAO-B at compound concentration of 10.0 uM in the Eurofins-Panlabs enzyme assay (Eurofins_assay_140120); set-up: substrate with concentration 50 uM Kynuramine, incubation time 60 min, incubation temperature 37 C; details: human recombinant MAO-B expressed in insect Hi5 cells, probe kynuramine, 50 uM, compound concentration 10 uM
Homo sapiens [18] = species: Homo sapiens; assay: Estrogen ERbeta Eurofins-Panlabs radioligand binding assay; details: Compound concentration 10.0 uM
[19] = target: Mitogen-activated protein kinase 14 (Homo sapiens, UniProt Q16539); assay: NanoBRET (SGC Frankfurt) (MAPK14)
Mitogen-activated protein kinase 14, sequence (Q16539 whole entry): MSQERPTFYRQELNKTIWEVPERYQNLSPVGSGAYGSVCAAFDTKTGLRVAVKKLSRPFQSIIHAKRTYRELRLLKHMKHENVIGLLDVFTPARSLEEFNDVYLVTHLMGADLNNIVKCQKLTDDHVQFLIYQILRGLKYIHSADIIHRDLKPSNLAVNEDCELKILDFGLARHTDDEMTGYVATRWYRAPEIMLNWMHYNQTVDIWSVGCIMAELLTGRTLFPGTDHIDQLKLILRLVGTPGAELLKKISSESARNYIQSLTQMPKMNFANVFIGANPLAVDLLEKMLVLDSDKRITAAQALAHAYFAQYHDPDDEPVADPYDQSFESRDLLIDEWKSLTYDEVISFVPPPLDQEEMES

[20] = target: T2, 5-hydroxytryptamine receptor 2C (Homo sapiens) (UniProt P28335); details: Compound concentration 10.0 uM
T2 sequence (whole entry): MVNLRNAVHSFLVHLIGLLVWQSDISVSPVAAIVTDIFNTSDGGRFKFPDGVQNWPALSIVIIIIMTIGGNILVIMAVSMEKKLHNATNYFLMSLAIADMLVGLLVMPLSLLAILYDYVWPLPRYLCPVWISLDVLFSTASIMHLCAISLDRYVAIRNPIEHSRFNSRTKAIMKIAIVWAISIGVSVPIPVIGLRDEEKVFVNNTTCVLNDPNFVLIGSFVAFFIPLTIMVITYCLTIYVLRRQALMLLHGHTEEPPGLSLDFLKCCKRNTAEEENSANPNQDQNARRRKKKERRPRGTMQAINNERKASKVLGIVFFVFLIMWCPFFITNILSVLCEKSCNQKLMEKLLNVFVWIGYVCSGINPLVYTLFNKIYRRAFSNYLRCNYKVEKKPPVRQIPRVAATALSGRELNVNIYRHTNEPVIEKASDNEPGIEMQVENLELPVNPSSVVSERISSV

[21] = target: Alpha-2C adrenergic receptor (Homo sapiens, UniProt P18825); assay: (§3) Adrenergic alpha2C Eurofins-Panlabs radioligand binding assay; set-up: ligand concentration 1 nM, non-specific ligand with concentration 10 µM WB-4101, incubation time 60 min, incubation temperature 25 °C
[22] = target: T3, Alpha-2C adrenergic receptor (Homo sapiens) (UniProt P18825); assay: as §3; set-up: ligand concentration 1 nM, non-specific ligand with concentration 10 µM WB-4101, incubation time 60 min, incubation temperature 25 °C
T3 sequence (whole entry): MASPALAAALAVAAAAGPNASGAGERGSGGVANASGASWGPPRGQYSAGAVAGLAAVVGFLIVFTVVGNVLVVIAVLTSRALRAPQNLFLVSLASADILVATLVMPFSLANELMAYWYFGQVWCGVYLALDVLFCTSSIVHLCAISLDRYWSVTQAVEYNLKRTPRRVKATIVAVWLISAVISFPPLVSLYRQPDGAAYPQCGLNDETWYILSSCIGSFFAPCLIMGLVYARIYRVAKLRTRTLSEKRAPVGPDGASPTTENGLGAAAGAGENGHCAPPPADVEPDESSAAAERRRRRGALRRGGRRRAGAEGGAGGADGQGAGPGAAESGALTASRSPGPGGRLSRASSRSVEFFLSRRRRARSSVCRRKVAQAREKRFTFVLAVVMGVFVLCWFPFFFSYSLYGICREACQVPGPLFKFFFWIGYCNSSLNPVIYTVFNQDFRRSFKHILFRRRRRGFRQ

[23] = Compound concentration 100.0 uM

O=C(O)c1cc(-c2ccc(C3CCNCC3)cc2)c2ccc(-c3ccc(C(F)(F)F)cc3)cc2c1 [PPTN]
inhibition (Rattus norvegicus [1]): 26% | inhibition (Homo sapiens [2]; Compound concentration 0.01 uM): 14% | inhibition (Homo sapiens [2]; Compound concentration 0.1 uM): -5% | inhibition (Homo sapiens [2]; Compound concentration 1.0 uM): 9% | inhibition (Homo sapiens [2]; Compound concentration 10.0 uM): 51% | IC50 [3]: 9.5 µM | Ki [3]: 6.2 µM | inhibition [4]: 4% | inhibition (Insulin receptor): -8% | inhibition [5]: 41% | inhibition ([6]; Compound concentration 0.01 uM): 0% | inhibition ([6]; Compound concentration 0.1 uM): 13% | inhibition ([6]; Compound concentration 1.0 uM): 65% | inhibition ([6]; Compound concentration 10.0 uM): 97% | IC50 [7]: 0.56 µM | Ki [7]: 0.23 µM | IC50 [8]: 86.9 µM | inhibition ([8]; Compound concentration 1.0 uM): -3% | inhibition ([8]; Compound concentration 10.0 uM): 4% | inhibition [8, 23]: 55% | inhibition [9]: 2% | inhibition [10]: 4% | inhibition ([11]; Compound concentration 0.1 uM): -3% | inhibition ([11]; Compound concentration 1.0 uM): -8% | inhibition ([11]; Compound concentration 10.0 uM): 22% | inhibition [11, 23]: 72% | inhibition [12]: 4% | inhibition (Rattus norvegicus [13]): -5% | inhibition [14]: 15% | inhibition [15]: 1% | inhibition [16]: -2% | inhibition at 60 min, 10 µM [17]: 3% (not active) | inhibition (Homo sapiens [18]): 1% | IC50 [19]: > 20 µM (not active) | inhibition [20]: 20% | IC50 [21]: 6.88 µM | Ki [21]: 1 µM | inhibition ([22]; Compound concentration 0.01 uM): -4% | inhibition ([22]; Compound concentration 0.1 uM): -2% | inhibition ([22]; Compound concentration 1.0 uM): 6% | inhibition ([22]; Compound concentration 10.0 uM): 63%
